Results taken from PubChem BioAssay (NCI).
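Following 48 hours of exposure in 96-well plates, responses at five concentrations were used to interpolate endpoints linearly. TGI is the concentration that stops growth completely.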

Columns and labels:
Experiment in all cases: growth of human tumour cells (NCI), 48 h
[1] = system: 786-0 renal
[2] = system: A498 renal
[3] = system: A549 NSCLC
[4] = system: ACHN renal
[5] = system: BT-549 breast
[6] = system: CAKI-1 renal
[7] = system: CCRF-CEM leukemia
[8] = system: COLO 205 colon
[9] = system: DU-145 prostate
[10] = system: EKVX NSCLC
[11] = system: HCC-2998 colon
[12] = system: HCT-116 colon
[13] = system: HCT-15 colon
[14] = system: HL-60(TB) leukemia
[15] = system: HOP-62 NSCLC
[16] = system: HOP-92 NSCLC
[17] = system: HS 578T breast
[18] = system: HT29 colon
[19] = system: IGROV1 ovarian
[20] = system: K-562 leukemia
[21] = system: KM12 colon
[22] = system: LOX IMVI melanoma
[23] = system: M14 melanoma
[24] = system: MALME-3M melanoma
[25] = system: MCF7 breast
[26] = system: MDA-MB-231 breast
[27] = system: MDA-MB-435
[28] = system: MDA-N
[29] = system: MOLT-4 leukemia
[30] = system: NCI-H226 lung
[31] = system: NCI-H23 lung
[32] = system: NCI-H460 lung
[33] = system: NCI-H522 lung
[34] = system: NCI/ADR-RES ovarian
[35] = system: OVCAR-3 ovarian
[36] = system: OVCAR-4 ovarian
[37] = system: OVCAR-5 ovarian
[38] = system: OVCAR-8 ovarian
[39] = system: PC-3 prostate
[40] = system: RPMI-8226 leukemia
[41] = system: RXF 393 renal
[42] = system: SF-268 CNS
[43] = system: SF-295 CNS
[44] = system: SF-539 CNS
[45] = system: SK-MEL-2 melanoma
[46] = system: SK-MEL-28 melanoma
[47] = system: SK-MEL-5 melanoma
[48] = system: SK-OV-3 ovarian
[49] = system: SN12C renal
[50] = system: SNB-19 CNS
[51] = system: SNB-75 CNS
[52] = system: SR leukemia
[53] = system: SW-620 colon
[54] = system: T-47D breast
[55] = system: TK-10 renal
[56] = system: U251 CNS
[57] = system: UACC-257 melanoma
[58] = system: UACC-62 melanoma
[59] = system: UO-31 renal

Compound: O=CNc1ccccc1OCCOc1ccccc1NC=O
- TGI [1]: > 100 µM
- TGI [2]: > 100 µM
- TGI [3]: > 100 µM
- TGI [4]: > 100 µM
- TGI [5]: > 100 µM
- TGI [6]: > 100 µM
- TGI [7]: > 100 µM
- TGI [8]: > 100 µM
- TGI [9]: > 100 µM
- TGI [10]: > 100 µM
- TGI [11]: > 100 µM
- TGI [12]: > 100 µM
- TGI [13]: > 100 µM
- TGI [14]: > 100 µM
- TGI [15]: > 100 µM
- TGI [16]: > 100 µM
- TGI [17]: > 100 µM
- TGI [18]: > 100 µM
- TGI [19]: > 100 µM
- TGI [20]: > 100 µM
- TGI [21]: > 100 µM
- TGI [22]: > 100 µM
- TGI [23]: > 100 µM
- TGI [24]: > 100 µM
- TGI [25]: > 100 µM
- TGI [26]: > 100 µM
- TGI [27]: > 100 µM
- TGI [28]: > 100 µM
- TGI [29]: > 100 µM
- TGI [30]: > 100 µM
- TGI [31]: > 100 µM
- TGI [32]: > 100 µM
- TGI [33]: > 100 µM
- TGI [34]: > 100 µM
- TGI [35]: > 100 µM
- TGI [36]: > 100 µM
- TGI [37]: > 100 µM
- TGI [38]: > 100 µM
- TGI [39]: > 100 µM
- TGI [40]: > 100 µM
- TGI [41]: > 100 µM
- TGI [42]: > 100 µM
- TGI [43]: > 100 µM
- TGI [44]: > 100 µM
- TGI [45]: > 100 µM
- TGI [46]: > 100 µM
- TGI [47]: > 100 µM
- TGI [48]: > 100 µM
- TGI [49]: > 100 µM
- TGI [50]: > 100 µM
- TGI [51]: > 100 µM
- TGI [52]: > 100 µM
- TGI [53]: > 100 µM
- TGI [54]: > 100 µM
- TGI [55]: > 100 µM
- TGI [56]: > 100 µM
- TGI [57]: > 100 µM
- TGI [58]: > 100 µM
- TGI [59]: > 100 µM

Compound: CC1=NN(c2nc(N)nc(/C(C#N)=C\c3ccc(-c4ccc([N+](=O)[O-])cc4)o3)n2)C(C)(C)C1
- TGI [1]: > 100 µM
- TGI [2]: > 100 µM
- TGI [3]: > 100 µM
- TGI [4]: > 100 µM
- TGI [5]: > 100 µM
- TGI [6]: > 100 µM
- TGI [7]: > 100 µM
- TGI [8]: > 100 µM
- TGI [9]: > 100 µM
- TGI [10]: > 100 µM
- TGI [11]: > 100 µM
- TGI [12]: > 100 µM
- TGI [13]: > 100 µM
- TGI [14]: 94.7 µM
- TGI [15]: 67.5 µM
- TGI [16]: > 100 µM
- TGI [17]: > 100 µM
- TGI [18]: > 100 µM
- TGI [19]: > 100 µM
- TGI [20]: > 100 µM
- TGI [21]: > 100 µM
- TGI [22]: > 100 µM
- TGI [23]: > 100 µM
- TGI [24]: > 100 µM
- TGI [25]: > 100 µM
- TGI [26]: > 100 µM
- TGI [27]: > 100 µM
- TGI [28]: > 100 µM
- TGI [29]: > 100 µM
- TGI [30]: > 100 µM
- TGI [31]: > 100 µM
- TGI [32]: > 100 µM
- TGI [33]: > 100 µM
- TGI [34]: > 100 µM
- TGI [35]: > 100 µM
- TGI [36]: > 100 µM
- TGI [37]: > 100 µM
- TGI [38]: > 100 µM
- TGI [39]: > 100 µM
- TGI [40]: > 100 µM
- TGI [41]: > 100 µM
- TGI [42]: > 100 µM
- TGI [43]: > 100 µM
- TGI [44]: > 100 µM
- TGI [45]: > 100 µM
- TGI [46]: > 100 µM
- TGI [47]: > 100 µM
- TGI [48]: > 100 µM
- TGI [49]: > 100 µM
- TGI [50]: > 100 µM
- TGI [51]: 51.6 µM
- TGI [52]: > 100 µM
- TGI [53]: > 100 µM
- TGI [54]: > 100 µM
- TGI [55]: > 100 µM
- TGI [56]: > 100 µM
- TGI [57]: > 100 µM
- TGI [58]: > 100 µM
- TGI [59]: > 100 µM

Compound: COC(=O)/C=C\C(C#N)(C#N)N=Cc1ccc(OC)cc1
- TGI [1]: 4.62 µM
- TGI [2]: 33 µM
- TGI [3]: 38.3 µM
- TGI [4]: 8.64 µM
- TGI [5]: 10.4 µM
- TGI [6]: 4.48 µM
- TGI [7]: 2.53 µM
- TGI [8]: 3.47 µM
- TGI [9]: 17 µM
- TGI [10]: 32 µM
- TGI [11]: 41.1 µM
- TGI [12]: 3.77 µM
- TGI [13]: 13.2 µM
- TGI [14]: 5.62 µM
- TGI [15]: 33.9 µM
- TGI [16]: 4.61 µM
- TGI [17]: 33.7 µM
- TGI [18]: 22.2 µM
- TGI [19]: 28.7 µM
- TGI [20]: > 58.6 µM
- TGI [21]: 32.6 µM
- TGI [22]: 11.4 µM
- TGI [23]: 8.77 µM
- TGI [24]: 4.01 µM
- TGI [25]: 7.44 µM
- TGI [26]: 37.7 µM
- TGI [27]: 5.44 µM
- TGI [28]: 16.5 µM
- TGI [29]: 4.39 µM
- TGI [30]: 25.3 µM
- TGI [31]: 28.3 µM
- TGI [32]: 42.5 µM
- TGI [33]: 2.26 µM
- TGI [34]: 9.09 µM
- TGI [35]: 6.64 µM
- TGI [36]: 12.8 µM
- TGI [37]: 40.7 µM
- TGI [38]: 9.46 µM
- TGI [39]: 19.6 µM
- TGI [40]: 2.87 µM
- TGI [41]: 5.42 µM
- TGI [42]: 11.5 µM
- TGI [43]: 53 µM
- TGI [44]: 11.2 µM
- TGI [45]: 35.5 µM
- TGI [46]: 12.8 µM
- TGI [47]: 32.6 µM
- TGI [48]: 31 µM
- TGI [49]: 30.9 µM
- TGI [50]: > 62.7 µM
- TGI [51]: 34.2 µM
- TGI [52]: 3.99 µM
- TGI [53]: 14.6 µM
- TGI [54]: 4.53 µM
- TGI [55]: 6.73 µM
- TGI [56]: 35.2 µM
- TGI [57]: 11.6 µM
- TGI [58]: 30 µM
- TGI [59]: 5.96 µM
